Measurements as given in US8013153B2, “Substituted pyrimidine kinase inhibitors” (Janssen Pharmaceutica, N.V., priority 2006, dated 2011).
pIC50: −log10 of the molar value. Like-named read-outs stand apart in the source and are kept apart here.

Legend:
HCT-116 colon carcinoma = test: Inhibition of in vitro cell proliferation (HCT116); assay type: cell-based, human;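 further: cells exposed to compound for 24 h, then 14C-thymidine added for a further 24 h and its uptake into DNA counted by scintillation, DMSO-only wells as control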
A375 malignant melanoma = test: Inhibition of in vitro cell proliferation (A375); assay type: cell-based, human;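 further: cells plated for 24 h, given compound for 24 h, then labelled with 14C-thymidine for another 24 h, with DMSO-only wells as control and counts read by scintillation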
[1] = tested on: HeLa cervical adenocarcinoma; test: Inhibition of in vitro cell proliferation (HeLa); assay type: cell-based, human; conditions: 14C-thymidine incorporation;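 further: cells exposed to compound for 24 h, then labelled 24 h with methyl 14C-thymidine, with uptake into DNA counted by scintillation against DMSO-only control wells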
HER2 cytoplasmic domain = target: T1, HER2 cytoplasmic domain (Homo sapiens, UniProt P04626); test: HER2 Kinase Screening Assay; assay type: biochemical; conditions: > means no observed 50% inhibition at the indicated test concentration; ~ means approximately 50% inhibition at that concentration
T1 construct: polyhistidine (N)
T1 sequence (P04626 676-1255 limits assumed): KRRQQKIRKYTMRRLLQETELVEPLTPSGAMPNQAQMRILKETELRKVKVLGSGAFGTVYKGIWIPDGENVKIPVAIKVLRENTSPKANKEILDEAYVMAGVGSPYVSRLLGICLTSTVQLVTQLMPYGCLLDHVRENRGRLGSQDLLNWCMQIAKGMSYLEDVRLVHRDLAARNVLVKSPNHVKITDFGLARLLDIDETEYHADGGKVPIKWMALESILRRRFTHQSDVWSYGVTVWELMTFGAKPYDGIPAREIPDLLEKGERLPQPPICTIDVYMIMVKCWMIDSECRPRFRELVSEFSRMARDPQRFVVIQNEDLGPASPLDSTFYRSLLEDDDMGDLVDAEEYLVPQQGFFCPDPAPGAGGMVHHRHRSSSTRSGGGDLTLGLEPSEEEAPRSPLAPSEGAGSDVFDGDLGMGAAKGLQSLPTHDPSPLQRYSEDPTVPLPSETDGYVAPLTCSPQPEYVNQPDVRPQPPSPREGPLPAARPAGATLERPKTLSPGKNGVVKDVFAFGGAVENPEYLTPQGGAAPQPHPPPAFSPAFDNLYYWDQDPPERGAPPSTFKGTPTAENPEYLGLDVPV
Experimental: (§1) A kinase reaction mixture was prepared containing 50 mM Tris-HCl pH=8, 10 mM MgCl2, 0.1 mM Na3PO4, 1 mM DTT, 10 μM ATP, 0.025 μM biotinylated histone-H1 peptide substrate and 0.2 μCuries per well ^33P-γ-ATP (2000-3000 Ci/mmol). 70 μL of the kinase reaction mixture was dispensed into the well of a streptavidin coated FlashPlate™ (Cat. # SMP103, NEN, Boston, Mass.). Then 1 μL of test compound stock in 100% DMSO was added to the wells resulting in a final concentration of 1% DMSO in the reaction with a 100 μL final reaction volume.
(§2) The CDK1:Cyclin-B protein was diluted in 50 mM Tris-HCl pH=8.0, 0.1% BSA at a concentration of 1 ng per μL and 30 μL (30 ng enzyme per test well) was added to each well to initiate the reaction. The reaction was incubated for one hour at 30° C. At the end of the 1 hour incubation, the reaction was terminated by aspirating the mixture from the plate and washing the wells twice with PBS containing 100 mM EDTA. The histone-H1 biotinylated peptide substrate became immobilized on the Flashplate™ and the incorporation of ^33P-γ-ATP was measured by reading the plate on a scintillation counter. Inhibition of the enzymatic activity of CDK1 was measured by observing a reduced amount of ^33P-γ-ATP incorporated into the immobilized peptide.
The HER2 kinase assay was carried out using the CDK kinase assay procedure except that the enzyme was replaced with a HER2 construct containing a polyhistidine tag at the N-terminus followed by 24 additional amino acids and the HER2 cytoplasmic domain beginning at amino acid 676 (Accession #M11730) to the end.

[2] = target: T2, rat VEGF-R2 kinase domain (Rattus norvegicus, UniProt O08775); test: VEGF-R2 Screening Assay; assay type: biochemical
T2 construct: amino acids 786-1343 of the rat VEGF-R2 kinase domain; polyhistidine (N)
T2 sequence (O08775 786-1343): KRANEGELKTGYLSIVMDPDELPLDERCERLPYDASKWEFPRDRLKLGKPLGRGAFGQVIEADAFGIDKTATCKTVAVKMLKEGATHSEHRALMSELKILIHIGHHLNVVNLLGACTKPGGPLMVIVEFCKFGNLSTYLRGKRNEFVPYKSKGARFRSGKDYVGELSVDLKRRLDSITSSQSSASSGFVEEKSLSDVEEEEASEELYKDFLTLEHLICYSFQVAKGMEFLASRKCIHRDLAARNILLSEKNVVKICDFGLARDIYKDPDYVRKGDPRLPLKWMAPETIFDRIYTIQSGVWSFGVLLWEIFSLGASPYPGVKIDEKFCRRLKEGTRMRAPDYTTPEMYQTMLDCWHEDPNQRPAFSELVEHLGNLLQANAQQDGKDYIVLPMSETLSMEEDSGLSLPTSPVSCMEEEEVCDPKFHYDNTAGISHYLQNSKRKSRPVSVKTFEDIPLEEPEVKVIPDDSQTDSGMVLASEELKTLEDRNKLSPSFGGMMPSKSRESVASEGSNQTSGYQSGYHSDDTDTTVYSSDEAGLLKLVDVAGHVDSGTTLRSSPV

CDK1:Cyclin-B = target: T3, CDK1:Cyclin-B (Homo sapiens, UniProt P06493); test: CDK1 Screening Assay; assay type: biochemical
T3 construct: purchased New England Biolabs, Beverly, Mass; 6020; host or cells: insect cells
T3 sequence (P06493 whole entry): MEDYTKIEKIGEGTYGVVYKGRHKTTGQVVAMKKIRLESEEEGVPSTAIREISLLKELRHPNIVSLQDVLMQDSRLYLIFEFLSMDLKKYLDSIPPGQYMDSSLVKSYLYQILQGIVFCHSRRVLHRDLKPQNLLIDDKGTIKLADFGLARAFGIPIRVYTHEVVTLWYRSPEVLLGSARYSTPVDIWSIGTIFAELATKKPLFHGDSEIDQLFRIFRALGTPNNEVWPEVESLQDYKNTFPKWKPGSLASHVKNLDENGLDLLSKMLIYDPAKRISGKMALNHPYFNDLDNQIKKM
T3 sequence (P14635 whole entry partner): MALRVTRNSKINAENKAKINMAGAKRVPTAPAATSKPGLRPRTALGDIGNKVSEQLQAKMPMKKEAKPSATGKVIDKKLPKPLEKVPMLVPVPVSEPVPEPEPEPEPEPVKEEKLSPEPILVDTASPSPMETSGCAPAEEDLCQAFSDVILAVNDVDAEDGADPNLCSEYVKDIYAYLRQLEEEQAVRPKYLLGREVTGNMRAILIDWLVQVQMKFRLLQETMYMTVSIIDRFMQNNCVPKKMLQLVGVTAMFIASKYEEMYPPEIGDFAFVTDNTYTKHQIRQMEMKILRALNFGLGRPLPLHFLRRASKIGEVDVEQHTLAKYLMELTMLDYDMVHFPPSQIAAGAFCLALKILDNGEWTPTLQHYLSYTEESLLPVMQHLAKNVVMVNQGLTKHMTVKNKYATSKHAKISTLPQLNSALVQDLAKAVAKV
Experimental: as §1, §2
The CDK1 used was isolated from insect cells expressing both the human CDK1 catalytic subunit and its positive regulatory subunit cyclin B (New England Biolabs, Beverly, Mass., Cat. #6020).

murine Aurora-A = target: T4, murine Aurora-A (Mus musculus, UniProt P97477); test: Aurora-A Screening Assay; assay type: biochemical
T4 construct: replaced with the full length protein encoding the murine Aurora-A; made in house; host or cells: sf9 insect cells
T4 sequence (P97477 1-395): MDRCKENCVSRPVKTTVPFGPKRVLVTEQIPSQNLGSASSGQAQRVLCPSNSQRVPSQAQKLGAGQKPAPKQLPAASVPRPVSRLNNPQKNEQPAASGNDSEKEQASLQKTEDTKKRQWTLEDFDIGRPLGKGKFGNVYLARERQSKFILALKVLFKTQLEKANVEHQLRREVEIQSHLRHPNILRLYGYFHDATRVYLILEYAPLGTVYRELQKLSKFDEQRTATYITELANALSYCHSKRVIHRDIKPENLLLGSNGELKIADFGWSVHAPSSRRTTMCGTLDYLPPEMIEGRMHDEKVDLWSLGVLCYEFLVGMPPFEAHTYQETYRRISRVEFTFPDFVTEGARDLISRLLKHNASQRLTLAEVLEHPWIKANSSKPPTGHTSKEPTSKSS
Experimental: as §1, §2
The Aurora-A kinase assay was carried out using the CDK kinase assay procedure except that the enzyme was replaced with the full length protein encoding the murine Aurora-A (Accession #GB BC014711) expressed and purified from sf9 insect cells.

[3] = Homo sapiens, HCT-116, 14C-thymidine incorporation
[4] = Homo sapiens, A-375, 14C-thymidine incorporation
[5] = > means no observed 50% inhibition at the indicated test concentration, ~ means approximately 50% inhibition at that concentration, read-out: IC50 VEGF-R2
[6] = > means no observed 50% inhibition at the indicated test concentration, ~ means approximately 50% inhibition at that concentration

| pIC50 [2, 5] | IC50 (HCT-116 colon carcinoma; 14C-thymidine incorporation) | IC50 (A375 malignant melanoma; 14C-thymidine incorporation) | IC50 [1] | pIC50 (CDK1:Cyclin-B; [6]) | pIC50 (murine Aurora-A; [6]) | SMILES | IC50 (HCT-116 colon carcinoma; [3]) | IC50 (A375 malignant melanoma; [4]) | IC50 ([1]; Homo sapiens) | pIC50 (HER2 cytoplasmic domain) | pIC50 (CDK1:Cyclin-B) | pIC50 (murine Aurora-A) | pIC50 ([2]; IC50 VEGF-R2) |
| --- | --- | --- | --- | --- | --- | --- | --- | --- | --- | --- | --- | --- | --- |
| 7.43 | – | – | – | – | – | Cc1cc2c(F)c(Oc3ncnc(N)c3C=NOCCCN3CCCCC3)ccc2[nH]1 [Cpd 20, 4-amino-6-(4-fluoro-2-methyl-1H-indol-5-yloxy)-pyrimidine-5-carbaldehyde O-(3-piperidin-1-yl-propyl)-oxime] | 2.78 µM | 0.429 µM | 0.715 µM | 5.81 | < 4.00 | < 4.00 | – |
| – | – | – | – | – | – | CON=Cc1c(N)ncnc1Oc1ccc(NC(=O)Nc2ccncc2)c(Cl)c1 [Cpd 88, 1-{4-[6-amino-5-(methoxyimino-methyl)-pyrimidin-4-yloxy]-2-chloro-phenyl}-3-pyridin-4-yl-urea] | 4.69 µM | 4.34 µM | 7.39 µM | < 5.00 | < 4.00 | < 5.00 | 7.96 |
| – | – | – | – | – | – | CON=Cc1c(N)ncnc1Oc1ccc(NC(=O)Nc2ccccc2F)c(Cl)c1 [Cpd 56, 1-{4-[6-amino-5-(methoxyimino-methyl)-pyrimidin-4-yloxy]-2-chloro-phenyl}-3-(2-fluoro-phenyl)-urea] | > 10 µM | > 10 µM | > 10 µM | < 5.00 | < 4.00 | < 4.00 | 8.48 |
| 8.66 | > 10 µM | > 10 µM | > 10 µM | < 4.00 | < 4.00 | CON=Cc1c(N)ncnc1Oc1ccc(NC(=O)Nc2ccc(OC)cc2)c(Cl)c1 [Cpd 63, 1-{4-[6-amino-5-(methoxyimino-methyl)-pyrimidin-4-yloxy]-2-chloro-phenyl}-3-(4-methoxy-phenyl)-urea] | – | – | – | < 5.00 | – | – | – |
| 8.41 | – | – | – | – | – | CON=Cc1c(N)ncnc1Oc1ccc(NC(=O)Nc2nc(C)cs2)c(Cl)c1 [Cpd 89, 1-{4-[6-amino-5-(methoxyimino-methyl)-pyrimidin-4-yloxy]-2-chloro-phenyl}-3-(4-methyl-thiazol-2-yl)-urea] | > 10 µM | 2.19 µM | > 10 µM | < 6.00 | < 4.00 | < 4.00 | – |
| 7.43 | – | – | – | – | – | CON=Cc1c(N)ncnc1Oc1ccc(NC(=O)Nc2ncc(C)s2)c(Cl)c1 [Cpd 90, 1-{4-[6-amino-5-(methoxyimino-methyl)-pyrimidin-4-yloxy]-2-chloro-phenyl}-3-(5-methyl-thiazol-2-yl)-urea] | > 10 µM | > 10 µM | > 100 µM | < 6.00 | < 4.00 | < 5.00 | – |

| SMILES | pIC50 [2, 5] | IC50 (HCT-116 colon carcinoma; 14C-thymidine incorporation) | IC50 (A375 malignant melanoma; 14C-thymidine incorporation) | IC50 [1] | pIC50 (CDK1:Cyclin-B; [6]) | pIC50 (murine Aurora-A; [6]) | IC50 (HCT-116 colon carcinoma; [3]) | IC50 (A375 malignant melanoma; [4]) | IC50 ([1]; Homo sapiens) | pIC50 (HER2 cytoplasmic domain) | pIC50 (CDK1:Cyclin-B) | pIC50 (murine Aurora-A) | pIC50 ([2]; IC50 VEGF-R2) |
| --- | --- | --- | --- | --- | --- | --- | --- | --- | --- | --- | --- | --- | --- |
| CON=Cc1c(N)ncnc1Oc1ccc(NC(=O)Nc2ccc(F)cc2)c(Cl)c1 [Cpd 60, 1-{4-[6-amino-5-(methoxyimino-methyl)-pyrimidin-4-yloxy]-2-chloro-phenyl}-3-(4-fluoro-phenyl)-urea] | 8.55 | – | – | – | – | – | > 10 µM | > 10 µM | > 10 µM | < 4.00 | < 4.00 | < 5.00 | – |
| CON=Cc1c(N)ncnc1Oc1ccc(NC(=O)Nc2nc(C)c(C)s2)c(Cl)c1 [Cpd 92, 1-{4-[6-amino-5-(methoxyimino-methyl)-pyrimidin-4-yloxy]-2-chloro-phenyl}-3-(4,5-dimethyl-thiazol-2-yl)-urea] | 8.70 | – | – | – | – | – | 16.9 µM | 6.92 µM | 23.4 µM | < 6.00 | < 4.00 | < 4.00 | – |
| CON=Cc1c(N)ncnc1Oc1ccc(NC(=O)Nc2cc(C)on2)c(Cl)c1 [Cpd 93, 1-{4-[6-amino-5-(methoxyimino-methyl)-pyrimidin-4-yloxy]-2-chloro-phenyl}-3-(5-methyl-isoxazol-3-yl)-urea] | 8.70 | – | – | – | – | – | 3.12 µM | 2.12 µM | 10 µM | < 5.00 | < 4.00 | < 4.00 | – |
